Data set [1] can be described thus: Metabolic stability evaluation in rat liver microsomes. The settings on record: SD, pH 7.4, rat liver microsomes 0.5 mg/mL, compound 1 μM, NADPH, 37° C.; for microsomal CLint at 1 μM: read-out: CLint, experiment in rat liver microsomes; for half-life at 1 μM: read-out: t1/2, experiment in rat liver microsomes. It counts as in vitro ADME. As for the experimental part:
(§1) Experiments in microsomes: Human liver microsomes: 0.5 mg/mL, Xenotech; Rat liver microsomes: 0.5 mg/mL, Xenotech; Coenzyme (NADPH/NADH): 1 mM, Sigma Life Science; Magnesium chloride: 5 mM, 100 mM phosphate buffer (pH 7.4).
(§2) Preparation of stock solution: A certain amount of powder of the example compounds was accurately weighed and dissolved in DMSO to 5 mM respectively.
(§3) Preparation of phosphate buffer (100 mM, pH7.4): A pre-formulated 150 mL potassium dihydrogen phosphate (0.5 M) was mixed with 700 mL of dibasic potassium phosphate (0.5M). The pH of the mixture was adjusted to 7.4 with 0.5 M dibasic potassium phosphate solution. The mixture was diluted 5-fold with ultrapure water before use, and magnesium chloride was added to obtain the phosphate buffer (100 mM) containing 100 mM potassium phosphate, 3.3 mM magnesium chloride, pH 7.4.
(§4) A NADPH regeneration system solution (containing 6.5 mM NADP, 16.5 mM G-6-P, 3 U/mL G-6-P D, 3.3 mM magnesium chloride) was prepared and placed on wet ice before use.
(§5) Preparation of stop solution: acetonitrile solution containing 50 ng/mL propranolol hydrochloride and 200 ng/mL tolbutamide (internal standard). 25057.5 μL of phosphate buffer (pH 7.4) was taken into a 50 mL centrifuge tube, to which 812.5 μL human liver microsomes were added, respectively, and mixed to obtain a liver microsome dilution solution with a protein concentration of 0.625 mg/mL. 25057.5 μL of phosphate buffer (pH 7.4) was taken into a 50 mL centrifuge tube, to which 812.5 μL SD rat liver microsomes were added, respectively, and mixed to obtain a liver microsome dilution solution with a protein concentration of 0.625 mg/mL.
(§6) Incubation of the samples: The stock solution of the respective compounds was respectively diluted to 0.25 mM with an aqueous solution containing 70% acetonitrile, which were used as working solutions, ready for use. 398 μL of the dilution solution of human liver microsomes or rat liver microsomes were added to a 96-well incubation plate (N=2), respectively, and 2 μL of 0.25 mM working solution was added and mixed.
(§7) Metabolic stability assay: 300 μL of pre-chilled stop solution was added to each well of a 96-well deep well plate and placed on ice as the stop plate. The 96 well incubation plate and NADPH regeneration system were placed in a 37° C. water bath box, shaken at 100 rpm and pre-incubated for 5 min. 80 μL of incubation solution was taken out from each well of the incubation plate and added to the stop plate, mixed, and replenished with 20 μL of NADPH regeneration system solution as a 0-min sample. 80 μL of NADPH regeneration system solution was added to each well of the incubation plate to start the reaction and counting was started. […] 100 μL of the reaction solution was taken at 10, 30, and 90 min after reaction, respectively, added to the stop plate, and vortexed for 3 minutes to terminate the reaction. The stop plate was centrifuged for 4 min at 5000× g at 4° C. 100 μL of the supernatant was added to a 96-well plate to which 100 μL of distilled water was previously added, mixed, and analyzed by LC-MS/MS.
(§8) Data analysis: The peak areas of the corresponding compounds and internal standard were detected by LC-MS/MS system, and the ratio of the peak area of the compounds to the internal standard was calculated.
(§9) The metabolic stability in human and rat liver microsomes was evaluated by simultaneously testing and comparing the compounds disclosed herein and the non-deuterated compound. The non-deuterated compound Ixazomib was used as a control in the table.
In general terms: Liver microsomes are vesicles of endoplasmic reticulum, rich in cytochrome P450 enzymes.

A short description of data set [2]: Metabolic stability evaluation in human liver microsomes. In kind it is in vitro ADME. The settings on record: pH 7.4, human liver microsomes 0.5 mg/mL, compound 1 μM, NADPH, 37° C.; for microsomal CLint at 1 μM: read-out: CLint, experiment in human liver microsomes; for half-life at 1 μM: read-out: t1/2, experiment in human liver microsomes. As for the experimental part: as §1, §2, §3, §4, §5, §6, §7, §8, §9

As for `[2H]C([2H])(NC(=O)c1cc(Cl)ccc1Cl)C(=O)N[C@@H](CC(C)C)B(O)O` [Compound I-1, (R)-(1-(2-(2,5-dichlorobenzamido)-2,2-d2-acetamido)-3-methylbutyl)boronic acid], in data set [1], the microsomal CLint at 1 μM stood at 81.3 µL/min/mg and the half-life at 1 μM was 17.1 min.
For the compound `[2H][C@@](CC(C)C)(NC(=O)CNC(=O)c1cc(Cl)ccc1Cl)B(O)O` [Compound I-2, (R)-(1-(2-(2,5-dichlorobenzamido)acetamido)-1-d-3-methylbutyl)boronic Acid], in data set [1], the microsomal CLint at 1 μM was determined as 90.5 µL/min/mg and the half-life at 1 μM was 15.3 min. Also, in data set [2], the microsomal CLint at 1 μM is 46.5 µL/min/mg and the half-life at 1 μM is 29.8 min.
In the case of `[2H]C([2H])(C(C)C)[C@H](NC(=O)CNC(=O)c1cc(Cl)ccc1Cl)B(O)O` [Compound I-3, (R)-(1-(2-(2,5-dichlorobenzamido)acetamido)-2,2-d2-3-methylbutyl)boronic Acid], in data set [2], the microsomal CLint at 1 μM was 47.3 µL/min/mg and the half-life at 1 μM worked out at 29.3 min.
Regarding `[2H]C([2H])(NC(=O)c1cc(Cl)ccc1Cl)C(=O)N[C@@]([2H])(CC(C)C)B(O)O` [Compound I-4, (R)-(1-(2-(2,5-dichlorobenzamido)-2,2-d2-acetamido)-1-d-3-methylbutyl)boronic Acid], in data set [1], the microsomal CLint at 1 μM amounted to 90 µL/min/mg and the half-life at 1 μM amounted to 15.4 min. In data set [2], the microsomal CLint at 1 μM is 48.3 µL/min/mg and the half-life at 1 μM is 28.7 min.
For `[2H]C([2H])(C(C)C)[C@]([2H])(NC(=O)CNC(=O)c1cc(Cl)ccc1Cl)B(O)O` [Compound I-5, (R)-(1-(2-(2,5-dichlorobenzamido)acetamido)-1-d-2,2-d2-3-methylbutyl)boronic Acid], in that order: 97.8 µL/min/mg, 14.2 min, 47.3 µL/min/mg and 29.3 min.
For `CC(C)C[C@H](NC(=O)CNC(=O)c1cc(Cl)ccc1Cl)B(O)O` [Ixazomib, reference compound] the same measures were 97.3 µL/min/mg, 14.3 min, 49.4 µL/min/mg and 28.1 min.

Source of the values: patent publication US10995103B2, “Substituted boric acid compound, pharmaceutical composition comprising same, and application thereof” (Shenzhen TargetRx, Inc., priority 2016, dated 2021).
